Laboratory results from patent US20060035938A1, “2-Pyridone derivatives as inhibitors of neutrophile elastase” (priority 2002, published 2006).

target: T1, Human Neutrophil Elastase (HNE) (Homo sapiens, UniProt P08246); test: Human Neutrophil Elastase Quenched-FRET Assay; assay type: biochemical; settings: read-out: Inhibition of Human Neutrophil Elastase IC50
T1 construct: Human Neutrophil Elastase (HNE) purified from serum; purchased Calbiochem 324681; host or cells: purified from human serum (so in the source); not recombinant
T1 sequence (P08246 30-267): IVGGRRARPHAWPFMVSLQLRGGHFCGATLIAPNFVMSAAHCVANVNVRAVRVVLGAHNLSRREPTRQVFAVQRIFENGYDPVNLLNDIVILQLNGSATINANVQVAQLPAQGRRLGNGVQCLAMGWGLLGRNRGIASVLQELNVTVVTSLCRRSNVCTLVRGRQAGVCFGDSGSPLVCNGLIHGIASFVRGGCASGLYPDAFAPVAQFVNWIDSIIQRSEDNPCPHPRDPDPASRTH
Procedure: Human Neutrophil Elastase Quenched-FRET Assay
The assay uses Human Neutrophil Elastase (HNE) purified from serum (Calbiochem art. 324681; Ref. Baugh, R J. et al., 1976, Biochemistry. 15, 836-841). HNB was stored in 50 mM NaOAc, 200 mM NaCl, pH 5.5 with added 30% glycerol at −20° C. The protease substrate used was Elastase Substrate V Fluorogenic, MeOSuc-AAPV-AMC (Calbiochem art. 324740; Ref. Castillo, M. J. et al., 1979, Anal. Biochem. 99, 53-64). The substrate was stored in DMSO at −20° C. The assay additions were as follows: Test compounds and controls were added to black 96-well flat-bottom plates (Greiner 655076), 1 μL in 100% DMSO, followed by 30 μL HNE in assay buffer with 0.01% TritonX-100. The assay buffer constitution was: 100 mM Tris (pH 7.5) and 500 mM NaCl. The enzyme and the compounds were incubated at room temperature for 15 minutes. Then 30 μl substrate in assay buffer was added The assay was stopped after 30 minutes incubation at room temperature by adding 60 μl stop solution (140 mM acetic acid, 200 mM sodium monochloroacetate, 60 mM sodium acetate, pH 4.3). Fluorescence was measured on a Wallac 1420 Victor 2 instrument at settings: Exitation 380 nm, Emission 460 nm. IC50 values were determined using xlfit curve fitting using model 205.

IC50 | SMILES
353 nM | COc1ccc(CNC(=O)c2ccc(C)n(-c3cccc(Br)c3)c2=O)cc1 [1-(3-Bromophenyl)-N-(4-methoxybenzyl)-6-methyl-2-oxo-1,2-dihydropyridine-3-carboxamide]
318 nM | Cc1cc(CNC(=O)c2ccc(C)n(-c3cccc(C(F)(F)F)c3)c2=O)no1 [6-Methyl-N-[(5-methylisoxazol-3-yl)methyl]-2-oxo-1-[3-(trifluoromethyl)phenyl]-1,2-dihydropyridine-3-carboxamide]
2030 nM | O=C(NCc1ccc2c(c1)CCO2)c1c[nH]c(=O)n(-c2cccc(C(F)(F)F)c2)c1=O [N-(2,3-Dihydro-1-benzofuran-5-ylmethyl)-2,4-dioxo-3-[3-(trifluoromethyl)phenyl]-1,2,3,4-tetrahydropyrimidine-5-carboxamide]
701 nM | COc1cccc(CNC(=O)c2ccc(C)n(-c3cccc(C(F)(F)F)c3)c2=O)c1OC [N-(2,3-Dimethoxybenzyl)-6-methyl-2-oxo-1-[3-(trifluoromethyl)phenyl]-1,2-dihydropyridine-3-carboxamide]
